Results: patent US9073915B2, “Substituted pyrimidone derivatives” (SANOFI, priority 2008, dated 2015)
pIC50: −log10 of the molar value. Where a name gives a salt, the structure may show the parent alone.

How the values were obtained:
GSK3β = GSK3β (Homo sapiens, UniProt P49841); experiment: Inhibitory activity against GSK3β (33P-ATP phosphorylation of prephosphorylated GS1 peptide, filter assay); type: biochemical; details: protocol 3: 7.5 μM GS1 peptide, 10 μM ATP, 50 mM Hepes pH 7.2, one hour at room temperature
Sequence of GSK3β (P49841 whole entry): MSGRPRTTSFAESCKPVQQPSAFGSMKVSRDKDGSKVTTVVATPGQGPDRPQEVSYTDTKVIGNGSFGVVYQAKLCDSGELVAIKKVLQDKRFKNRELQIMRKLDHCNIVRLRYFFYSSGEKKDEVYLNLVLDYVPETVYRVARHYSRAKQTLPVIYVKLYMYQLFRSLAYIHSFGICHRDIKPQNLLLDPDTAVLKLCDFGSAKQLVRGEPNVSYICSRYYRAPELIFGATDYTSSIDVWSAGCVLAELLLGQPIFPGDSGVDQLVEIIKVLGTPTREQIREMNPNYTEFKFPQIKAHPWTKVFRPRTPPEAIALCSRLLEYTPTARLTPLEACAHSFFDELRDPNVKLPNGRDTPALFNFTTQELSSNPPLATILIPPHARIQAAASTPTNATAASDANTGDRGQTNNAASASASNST
Procedure: Four different protocols can be used. […]
The reaction was stopped with 100 microliters of a solution made of 25 g polyphosphoric acid (85% P2O5), 126 ml 85% H3PO4, H2O to 500 ml and then diluted to 1:100 before use. […] Incorporated ^33P radioactivity was determined by liquid scintillation spectrometry. […]

COc1ccccc1CCc1cccn2c(=O)cc(-c3ccncc3)nc12 (as salt: hydrochloride) [compound 7, 9-[2-(2-Methoxy-phenyl)-ethyl]-2-pyridin-4-yl-pyrido[1,2-a]pyrimidin-4-one]
melting point: 220 to 224 °C

O=c1cc(-c2ccncc2)nc2cc(-c3ccccc3)ccn12 (as salt: salt) [Compound No. 4, 8-Phenyl-2-pyridin-4-yl-pyrido[1,2-a]pyrimidin-4-one]
melting point: 261 to 262 °C

O=c1cc(-c2ccncc2)nc2cc(-c3ccccc3)ccn12 [Compound No. 4, 8-Phenyl-2-pyridin-4-yl-pyrido[1,2-a]pyrimidin-4-one]
pIC50 (GSK3β): 6.31

COc1ccccc1CCc1cccn2c(=O)cc(-c3ccncc3)nc12 [compound 7, 9-[2-(2-Methoxy-phenyl)-ethyl]-2-pyridin-4-yl-pyrido[1,2-a]pyrimidin-4-one]
pIC50 (GSK3β): 7.52
